Structures can show the parent of a compound that is named as a salt.
Legend:
GluN1/GluN3A receptors [1] = target: T1, GluN1/GluN3A receptors (UniProt Q05586+Q9R1M7); test: Whole-cell patch-clamp recording on GluN1/GluN3A Flp-in T-REx 293 stable cell lines; format: cell-based, human GluN1-1a, rat GluN3A; set-up: expressed in transfected cells; settings: for remaining activity at 3 µM: Flp-In-T-REx-293, read-out: I drug/I control; for I drug/I control: 3 μM compound, whole-cell patch-clamp, mean ± SEM, drug application order as in FDSS/μCell Ca2+ imaging (CGP-78608, then glycine)
T1 sequence (Q9R1M7 24-1135, other chains not shown): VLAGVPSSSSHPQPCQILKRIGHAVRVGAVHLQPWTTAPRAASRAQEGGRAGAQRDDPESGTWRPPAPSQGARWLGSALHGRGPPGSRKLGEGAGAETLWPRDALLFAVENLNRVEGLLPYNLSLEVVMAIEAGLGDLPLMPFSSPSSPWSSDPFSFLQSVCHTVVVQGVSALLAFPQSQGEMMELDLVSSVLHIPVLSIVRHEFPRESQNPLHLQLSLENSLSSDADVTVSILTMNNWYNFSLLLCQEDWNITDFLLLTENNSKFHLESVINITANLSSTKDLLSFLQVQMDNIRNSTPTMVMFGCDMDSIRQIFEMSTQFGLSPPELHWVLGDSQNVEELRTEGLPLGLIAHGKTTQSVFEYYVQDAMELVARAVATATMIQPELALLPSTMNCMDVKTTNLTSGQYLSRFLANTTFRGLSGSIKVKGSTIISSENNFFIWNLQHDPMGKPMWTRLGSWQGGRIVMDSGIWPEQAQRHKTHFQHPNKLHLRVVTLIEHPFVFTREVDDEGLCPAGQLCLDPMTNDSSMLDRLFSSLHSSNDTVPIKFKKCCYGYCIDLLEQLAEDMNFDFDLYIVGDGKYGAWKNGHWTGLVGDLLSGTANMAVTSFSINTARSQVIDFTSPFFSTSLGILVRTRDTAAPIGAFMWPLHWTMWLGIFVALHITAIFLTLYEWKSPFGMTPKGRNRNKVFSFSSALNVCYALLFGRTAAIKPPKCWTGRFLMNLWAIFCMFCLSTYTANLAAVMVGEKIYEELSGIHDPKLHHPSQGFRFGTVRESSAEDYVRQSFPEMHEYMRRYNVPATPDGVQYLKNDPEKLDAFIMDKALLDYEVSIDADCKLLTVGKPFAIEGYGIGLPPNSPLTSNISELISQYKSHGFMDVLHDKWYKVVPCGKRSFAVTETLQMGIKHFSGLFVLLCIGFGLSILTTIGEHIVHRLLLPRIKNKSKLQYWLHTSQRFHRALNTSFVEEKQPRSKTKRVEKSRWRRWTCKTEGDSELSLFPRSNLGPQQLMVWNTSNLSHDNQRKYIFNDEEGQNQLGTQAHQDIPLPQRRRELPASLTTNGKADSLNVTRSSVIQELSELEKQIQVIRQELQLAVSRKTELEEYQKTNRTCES
Description: To establish GluN1/GluN3A stable cell lines, the human GluN1-1a (GenBank: NP_015566.1) and the rat GluN3A (GenBank: NP_612555.1) genes were subcloned into the pcDNA5-FRT-To and pcDNA3.1 vectors, respectively. An EGFP tag was added to the C-terminus of GluN1 or GluN3A using a T2A linker for identification of transfected cells during transient transfection. Point mutations were introduced by site-directed mutagenesis using PrimeSTAR (Takara). The human GluN2A (GenBank: NP_000824.1) gene was subcloned into the pcDNA3.1 vector. The chimeras GluN3A^670-673 MWPL/LEPF and GluN2A^550-553 LEPF/MWPL were generated using In-Fusion HD Cloning kits (Takara). All constructs were confirmed by DNA sequencing (Beijing Genomics Institute).
The Flp-in T-Rex 293 cell lines (Invitrogen), stably expressing GluN1/GluN3A were grown in DMEM basal medium (Gibco) supplemented with 10% fetal bovine serum (FBS, Invitrogen), 15 μg/ml blasticidin S (Invitrogen), 50 μg/ml hygromycin B (Invitrogen) and 500 μg/ml G418 (Gibco). Expression in cell lines was induced with 1 μg/ml doxycycline (Invitrogen) 24–28 h prior to the experiments. Chinese hamster ovary (CHO) cells were grown in DMEM-F12 basal medium (Gibco) supplemented with 10% FBS. In the study on the action sites of WZB117, all whole-cell patch-clamp recordings were performed on CHO cells. The transfections were carried out using Lipofectamine 3000 transfection reagent (Thermo Fisher) according to the manufacturer’s instructions. All cells mentioned above were cultured in a 5% CO2 incubator at 37°C and passaged every other day at a ratio of 1:3.
Whole-cell patch-clamp recordings were performed at room temperature (22–25°C) using an EPC-10 amplifier and Patch Master Software (HEKA). Pipettes were pulled from borosilicate glass capillaries (World Precision Instruments), and the resistances were 3–5 MΩ when filled with the intracellular solution. The extracellular solution contained (in mM): 140 NaCl, 2.8 KCl, 1 CaCl2, 10 HEPES and 20 sucrose (290–300 mOsm), pH adjusted to 7.3 using NaOH. The pipette solution contained (in mM): 115 CsF, 10 CsCl, 10 HEPES and 10 BAPTA (280–290 mOsm), pH adjusted to 7.2 using CsOH ([Grand et al., 2018]). When recording in hippocampal neurons, the extracellular solution contained (in mM): 140 NaCl, 5 KCl, 1 CaCl2, 1.25 MgCl2, 10 glucose, and 10 HEPES, and the pH was adjusted to 7.4 using NaOH, and the pipette solution contained (in mM): 140 KCl, 1 MgCl2, 10 EGTA, and 10 HEPES, and the pH was adjusted to 7.2 using KOH ([Xie et al., 2020]). Drug-containing solutions were applied through an RSC-200 Rapid Solution Changer with a 9-tube head (BioLogic Co., France), in which the cell is positioned close to the output of a capillary. The solution, containing either one drug or a combination of different drugs, to be assayed flows out of the capillary at a moderate flow rate by gravity. The lifted cell, exposed to this stream, rapidly equilibrates in the perfusion solution. Whole-cell patch-clamp recordings in heterologous cells and hippocampal neurons were performed at a holding potential of −60 mV. Currents were sampled at 10 kHz and low pass filtered at 2.9 kHz. To record the native GluN1/GluN3 receptor-mediated currents, the extracellular solution was supplemented with 10 μM bicuculline (Sigma-Aldrich), 2 μM NBQX (Topscience), 100 μM D-APV (MCE), and 50 μM strychnine (UHN Shanghai) to block γ-aminobutyric acid type A (GABAA), α-amino-3-hydroxy-5-methylisoxazole-4-propionate (AMPA), GluN1/GluN2 NMDA and glycine receptors, respectively. To record the native GluN2-NMDARs-mediated currents, 10 μM bicuculline and 2 μM NBQX were added into the extracellular solution to block GABAA receptors and AMPA receptors, respectively ([Grand et al., 2018]; [Otsu et al., 2019]; [Zhu et al., 2020]).
Patch-clamp data were processed using Clampfit 10.4 (Molecular Device, Sunnyvale, CA, United States) and analyzed with GraphPad Prism 5.0 (GraphPad Software, San Diego, CA, United States). […]

GluN1/GluN3A receptors [2] = target: T1, GluN1/GluN3A receptors; test: High-throughput Fluo-4 calcium assay (FDSS/μCell) in HEK-293 cells stably expressing GluN1/GluN3A; format: cell-based, human GluN1-1a, rat GluN3A; set-up: expressed in transfected cells; settings: primary and secondary screening
Description: The HEK-293 cells stably expressing GluN1/GluN3A receptors were seeded at a density of 10,000 cells/well in the 384-well plates, and expression was induced with 1 μg/ml doxycycline for 24–28 h. Then the culture medium was removed, Fluo-4 (Invitrogen) was loaded and the cells were incubated in the 37°C incubator away from light for 1 h ([Gee et al., 2000]). The plates were gently washed twice with Ca^2+-free buffer and then incubated with one of the 2560 compounds (from the Chinese National Compound Library) or DMSO (1% and 0.33%) for 20 min. A fixed concentration of 30 μM and dual concentrations of 10 μM and 30 μM were applied in the primary and secondary screening, respectively. Two replicates were set up for each condition. […] A FDSS/μCell platform (Hamamatsu) was used to measure the fluorescence signals. The excitation (Ex) and emission (Em) wavelengths were set to 480 and 540 nm, respectively. The inhibitory effects of tested compounds were compared by the ratios of fluorescence (F) with (F drug) and without (F control) the compounds. The F control value in these assays represented the value of basal Fluo-4 fluorescence plus glycine-stimulated fluorescence, and the F drug indicated the total Fluo-4 fluorescence after treatment of the drugs. Both the F drug and F control values were taken at the peak. The Ca^2+-free buffer used to dilute Fluo-4 and wash cell-plates contained (in mM): 140 NaCl, 5 KCl, 1 MgCl2, 10 glucose, 10 HEPES, and 0.5 EGTA. The pH was adjusted to 7.2 using NaOH. To dilute the compounds, 2 mM of free Ca^2+ was added in addition to the other components of the buffer.

GluN1/GluN3 receptors = target: GluN1/GluN3 receptors; set-up: method as in Zhu et al., 2020; settings: ref Zhu et al., 2020; cited from earlier work
GluN3A = settings: ref Yao and Mayer, 2006; cited from earlier work

SMILES | remaining activity at 3 µM (GluN1/GluN3A receptors [1]) [%] | also measured
Nc1n[n+]([O-])c2ccccc2[n+]1[O-] [Tirapazamine] | 103 ± 5 | –
CNc1nc(-c2ccc3c(N)n[nH]c3c2)cc(N2C[C@@H](C(=O)NC3CCCCC3)CC[C@H]2C)n1 [GSK2334470] | 84 ± 4 | –
COc1cc(OC)c(C=C2C(O)=Nc3ccccc32)c(OC)c1 [IC261] | 88 ± 1 | –
O=c1[nH]c2cc(Cl)ccc2c(O)c1-c1cccc(Oc2ccccc2)c1 [L-701324] | – | identification in HTS (GluN1/GluN3A receptors [2]): identified in both the primary screening and secondary screening
Cc1[nH]c(/C=C2\C(=O)Nc3ccccc32)c(C)c1CCC(=O)O [SU6668] | 89 ± 4 | –
COc1ccc(OCC(c2ccc(OC)cc2)N2Cc3ccccc3C2=O)cc1 (stereo not shown) [EU1180-438] | – | IC50 (GluN1/GluN3 receptors): 1800 ± 300 nM
CCOC(=O)Nc1ccc(NCc2ccc(F)cc2)nc1N [flupirtine maleate] | – | identification in HTS (GluN1/GluN3A receptors [2]): identified in both the primary screening and secondary screening
N[C@H](CO)C(=O)O [D-serine] | – | identification in HTS (GluN1/GluN3A receptors [2]): identified in both the primary screening and secondary screening
Nc1nc2ccc(OC(F)(F)F)cc2s1 [riluzole] | – | identification in HTS (GluN1/GluN3A receptors [2]): identified in both the primary screening and secondary screening
O=C(O)c1cc(O)c2c(c1)C(=O)c1cccc(O)c1C2=O [Rhein] | 80 ± 4 | –
O=C(O)c1cc(=O)c2c(Cl)cc(Cl)cc2[nH]1 [5,7-DCKA] | – | identification in HTS (GluN1/GluN3A receptors [2]): identified in both the primary screening and secondary screening
CC(C)c1cc(C(C)C)c(CC(=O)NS(=O)(=O)Oc2c(C(C)C)cccc2C(C)C)c(C(C)C)c1 [Avasimibe] | 86 ± 3 | –
NC(=O)N1CCC(CC(=O)N2CCC([C@H]3c4ncc(Br)cc4CCc4cc(Cl)cc(Br)c43)CC2)CC1 [Lonafarnib] | 98 ± 2 | –
COc1ccc(S(=O)(=O)N(CCO)c2ccccc2CN(C)C/C=C/c2ccc(Cl)cc2)cc1.O=P(O)(O)O [KN93 Phosphate] | – | I drug/I control (GluN1/GluN3A receptors [1]): 0.90 ± 0.02
CCCCCCCCCCCCCCCCn1cc[n+](Cc2ccccc2)c1C.[I-] [NH125] | – | I drug/I control (GluN1/GluN3A receptors [1]): 0.84 ± 0.03
CC(C)(O)CC(=O)NCCn1ccc2ncnc(Nc3ccc(Oc4cccc(C(F)(F)F)c4)c(Cl)c3)c21 [TAK285] | 92 ± 6 | –
NCC(=O)O [glycine] | – | higher affinity for GluN3A than for GluN1 (GluN3A): 650 fold
Oc1ccc(-c2nc3cc(O)cc(Br)c3o2)cc1 [WAY200070, 7-bromo-2-(4-hydroxyphenyl) benzoxazol-5-ol] | 53 ± 2 | –
Cc1ccc(CN(Cc2ccc(-c3ccccc3S(=O)(=O)NC#N)cc2)C(=O)c2ccccc2Cl)cc1 [S0859, 2-chloro-N-[2'-(N-cyanosulfamoyl)biphenyl-4-ylmethyl]-N-(4-methylbenzyl) benzamide] | 48 ± 2 | –
